US20170281611A1, “QUINOLINES AND THEIR USE FOR TREATING ENDOPLASMIC RETICULUM STRESS-CAUSED DISEASES” (EIGER BIOPHARMACEUTICALS, INC., priority 2014, published 2017)
Where two headings read alike, the source gives them in different places. Blank lines part the entries; values can stand above or below the molecule they belong to.

Tests used:
CSM14.1 cells = assay: ER stress cell survival assay (thapsigargin, […]-GLO); assay type: cell-based; details: dose-response
Description: CSM14.1 cells were maintained in Complete Medium at 32° C.; wherein the Complete Medium contained Dulbecco's modified eagle medium (DMEM) with 10% fetal bovine serum (FSB), 1% L-glutamine, 100 IU/mL penicillin, and 100 μg/mL streptomycin. The cells were recovered from cultures by trypsinization and then seeded in 384 well plates (Greiner #781098) at a concentration of 1,000 cells/well in 20 μL of DMEM Assay Medium, wherein the DMEM Assay Medium contained 2% FBS, 100 IU/mL penicillin, and 100 μg/mL streptomycin. Seeding was performed using a MultiDrop Combi reagent broadcaster. The plates were incubated overnight at 32° C.
A test compound was prepared by 2-fold serial dilution in 100% DMSO using a BIOMEK® 2000 liquid handler (Beckman Coulter). A dose-response curve containing 10 concentrations of the test compound was obtained. Using a BIOMEK® FX liquid handler (Beckman Coulter), 2.5 μL of the test compound was transferred from the 100% DMSO serial dilution plate to an intermediate plate containing 47.5 μL of DMEM Assay Medium containing 2% FBS, 100 IU/mL penicillin, and 100 μg/mL streptomycin and mixed. To reduce or eliminate the interference from the compound's precipitation, 6 μL of the diluted compound was immediately transferred to the assay plate to achieve a high compound concentration of 100 μM in 99% DMEM Assay Medium and 1% DMSO. After the assay plates were incubated for 2 hrs, 4 μL of 112.5 μM thapsigargin (TG) (DMSO stock diluted into Assay TC Medium) was dispensed into each testing well with a MultiDrop Combi reagent broadcaster for a final concentration of about 15 μM TG. The tissue culture media (4 μL) containing vehicle only was transferred manually to each control cell using a 16 channel electronic pipette. […] High luminescence indicates cell survival.
Alternatively, a test compound was tested at a single compound concentration (e.g., 2 μM) to determine the effect of the compound on cell survival in comparison with vehicle.

[1] = system: human foreskin fibroblast (HFF) cells; assay: Toxicity in human foreskin fibroblast cells; assay type: cell-based; details: 100 μM
[2] = Pharmacokinetics in Sprague Dawley rats (Table 4); assay type: in vivo; details: rat; for MRT inf: read-out: MRT0-∞
Excerpt: Compound D1 was formulated in 0.3% DMA/1% SOLUTOL®/98.7% saline. Compound D6 was formulated in 0.5% DMA/1% SOLUTOL®/94.5% 0.01N HCl in saline/4% NaOH (pH 4-5).

MCF10A Cells = assay: In vitro viability, monolayers (2D) and spheroids (3D), normal breast tissue cells; assay type: cell-based; details: Homo sapiens, MCF-10A
Description: (§1) The anticancer activity of a test compound was determined in vitro using mammalian tumor cells that grew as monolayers and spheroids. Spheroids represent the three-dimensional growth and organization of solid tumors, and thus are an intermediate model between monolayers of cells in culture and tumors in vivo. The cancer cell line tested was a breast cancer cell line, BT474. Normal breast tissue cells (MCF10A) were used as a control. The viability/proliferation of the cells were measured using […]-GLO® reagent.

[3] = Pharmacokinetics in Beagle dogs (Table 5); assay type: in vivo; details: dog; for MRT inf: read-out: MRT0-∞
Description: For pharmacokinetic evaluation, 3 male Beagle dogs were intravenously (IV) dosed (1 mg/kg body weight) and 3 male Beagle dogs were orally (PO) dosed (10 mg/kg body weight) with a test compound. Blood (approximately 1.0 mL) was collected via femoral vein into tubes containing K3EDTA anticoagulant at 0, 0.017, 0.083, 0.5, 1, 2, 4, 6, 8, and 24 hours post-dosing. Plasma samples were analyzed by LC-MS/MS. The analytical results were confirmed using quality control samples for intra-assay variation. The accuracy of >66% of the quality control samples was between 80-120% of the known value(s). A standard set of pharmacokinetic parameters were generated from concentration data including Area Under the Curve (AUC0-t and AUC0-inf), elimination half-lives, clearances, volume of distribution and bioavailabilities (based on AUC0-t), maximum plasma concentration (C0; Cmax), and time to reach maximum plasma concentration (Tmax).

BT474 Cells = assay: In vitro anticancer activity, monolayers (2D) and spheroids (3D), BT474; assay type: cell-based; details: Homo sapiens
Description: as §1

SERCA = assay: Activation of SERCA, increase in Vmax (SR type not given); assay type: biochemical
[4] = Sprague Dawley, in vivo, IV (2 mg/kg)
[5] = Sprague Dawley, in vivo, PO (10 mg/kg)
[6] = monolayers (2D), read-out: IC50 (2D)
[7] = spheroids (3D), read-out: IC50 (3D)
[8] = male, Beagle, plasma, IV (1 mg/kg)
[9] = male, Beagle, plasma, PO (10 mg/kg)
[10] = BT-474, monolayers (2D), read-out: IC50 (2D)
[11] = BT-474, spheroids (3D), read-out: IC50 (3D)

SMILES: O=C(c1cccc(Cl)c1)N1CCN(c2ccnc3cc(Cl)ccc23)CC1 [Compound D3, (3-Chlorophenyl)(4-(7-chloroquinolin-4-yl)piperazin-1-yl)methanone]
EC50 (CSM14.1 cells): 20 to 100 µM

SMILES: Cc1ccc(C(=O)N2CCN(c3ccnc4cc(Cl)ccc34)CC2)cc1 [Compound D4, (4-(7-Chloroquinolin-4-yl)piperazin-1-yl)(p-tolyl)methanone]
EC50 (CSM14.1 cells): 20 to 100 µM

SMILES: Cc1ccc(C(=O)N2CCN(c3ccnc4cc(Cl)ccc34)CC2)cc1Cl [Compound D5, (3-Chloro-4-methylphenyl)(4-(7-chloroquinolin-4-yl)piperazin-1-yl)methanone]
EC50 (CSM14.1 cells): < 20 µM

AUC(0-inf) [2, 4]: 8640 ± 650 ng·h/mL
AUC(0-t) [2, 4]: 8600 ± 659 ng·h/mL
Cmax [2, 4]: 39.7 ± 1.06 µM
Tmax [2, 4]: 0.02 h
clearance [2, 4]: 3.83 mL/min/kg
half-life [2, 4]: 0.98 ± 0.13 h
MRT inf [2, 4]: 0.98 ± 0.09 h
Vd ([2]; Sprague Dawley, in vivo, IV (2 mg/kg), read-out: Vz): 0.33 ± 0.03 L/kg
AUC(0-inf) [2, 5]: 21200 ± 1940 ng·h/mL
AUC(0-t) [2, 5]: 19900 ± 1510 ng·h/mL
Cmax [2, 5]: 13 ± 3.56 µM
Tmax [2, 5]: 0.42 ± 0.14 h
half-life [2, 5]: 1.79 ± 0.39 h
MRT inf [2, 5]: 2.96 ± 0.66 h
F ([2]; PO (10 mg/kg) vs IV (2 mg/kg)): 44%
F ([3]; PO (10 mg/kg) vs IV (1 mg/kg), based on AUC0-t): 82%
AUC(0-inf) [3, 8]: 14300 ± 2220 ng·h/mL
AUC(0-t) [3, 8]: 13900 ± 2100 ng·h/mL
Cmax [3, 8]: 12.7 ± 2.4 µM
Tmax [3, 8]: 0.02 h
clearance [3, 8]: 1.17 mL/min/kg
half-life [3, 8]: 4.8 ± 0.4 h
MRT inf [3, 8]: 5.6 ± 0.4 h
Vd ([3]; male, Beagle, plasma, IV (1 mg/kg), read-out: Vz): 0.49 ± 0.04 L/kg
AUC(0-inf) [3, 9]: 114000 ± 15500 ng·h/mL
AUC(0-t) [3, 9]: 110000 ± 15500 ng·h/mL
Cmax [3, 9]: 26.5 ± 1.9 µM
Tmax [3, 9]: 0.83 ± 0.29 h
half-life [3, 9]: 4.8 ± 0.6 h
MRT inf [3, 9]: 7 ± 0.3 h
IC50 (BT474 Cells; [10]): 5 µM
IC50 (BT474 Cells; [11]): 8 µM
SMILES: O=C(c1ccc(N2CCCC2)c([N+](=O)[O-])c1)N1CCN(c2ccnc3cc(Cl)ccc23)CC1 [Compound D6, (4-(7-Chloroquinolin-4-yl)piperazin-1-yl)(3-nitro-4-(pyrrolidin-1-yl)phenyl)methanone]
toxicity in HFF cells [1]: no toxicity
IC50 (MCF10A Cells; [6]): > 50 µM
IC50 (MCF10A Cells; [7]): > 50 µM
EC50 (CSM14.1 cells): < 20 µM

SMILES: O=C(C1CC1)N1CCN(c2ccnc3cc(Cl)ccc23)CC1 [Compound D7]
EC50 (CSM14.1 cells): < 20 µM

SMILES: CCNc1ccc(C(=O)Nc2cccc3ccc(C)nc23)cc1 [Compound J1, 4-(Ethylamino)-N-(2-methylquinolin-8-yl)benzamide]
Increase in Vmax at 10 μM (SERCA): A′ (A′ represents an increase greater than 50%)
EC50 (CSM14.1 cells): < 20 µM

SMILES: Cc1ccc2cccc(NC(=O)c3ccc(O)cc3)c2n1 [Compound J2, 4-Hydroxy-N-(2-methylquinolin-8-yl)benzamide]
Increase in Vmax at 10 μM (SERCA): A′ (A′ represents an increase greater than 50%)
EC50 (CSM14.1 cells): < 20 µM

IC50 (BT474 Cells; [10]): 10 µM
IC50 (BT474 Cells; [11]): 10 µM
SMILES: CCN(CC)CCNC(=O)c1c(C)[nH]c(/C=C2\C(=O)Nc3ccc(F)cc32)c1C [Sutent, reference compound]
IC50 (MCF10A Cells; [6]): 3 µM
IC50 (MCF10A Cells; [7]): 7 µM
